Results: patent US11926578B1, “8-(4-nitroxybenzylideneamino)naphthalene-1,3-disulfonic acid as an antioxidant compound” (KING FAISAL UNIVERSITY, priority 2023, dated 2024)

Experiment: DPPH radical scavenging antioxidant test (absorbance at 517 nm)
Format: biochemical
Details: radical scavenging inhibition of DPPH, 0.2 mL DPPH (0.75 mM), compound 3 μM in ethanol, 30 min in the dark
Description: The antioxidant properties of the 8-(4-nitroxybenzylideneamino)naphthalene-1,3-disulfonic acid were studied by adding 0.2 mL DPPH (0.75 mM)) to compound 8-(4-nitroxybenzylideneamino)naphthalene-1,3-disulfonic acid (III) (3 μM) in ethanol. After 30 min of incubation in the dark, the absorbance was read against a blank at 517 nm. Ascorbic acid (vitamin C) was used as standard antioxidants (positive control). A blank sample was prepared by 0.2 ml of DPPH in 3 ml ethanol. A negative control sample was run using ethanol instead of the sample. The radical scavenging inhibition was calculated using the following equation: […]

O=C1O[C@H]([C@@H](O)CO)C(O)=C1O [vit c, Ascorbic acid]
Inhibition: 74%
